For data set [1] the following is noted: known crystalline form; compared with industry limits; cited from earlier work.
Data set [2] is described as follows: Dynamic Vapour Sorption (DVS) moisture sorption. In kind it is physicochemical. To be noted: for total uptake of water vapours (max water adsorption, hygroscopicity): relative humidity 0% to 95% in steps of 5%, 1 h per step. As to the method:
Moisture sorption isotherms were measured using a DVS-1 system of Surface Measurement Systems (London, UK). Differences in moisture uptake of a solid material indicate differences in the relative stabilities of the various solid forms for increasing relative humidity. The experiment was carried out at a constant temperature of 25° C.
A sample of about 15 mg of TDSU ULT-1 was spread in the DVS pan. The sample was dried at 0% RH for 7 h. Subsequently the relative humidity of the chamber was increased in steps of 5% units from 0% to 95% in order to monitor the sorption of water vapours. The samples remained in each of the steps for 1 h. Following, desorption was monitored by decreasing the relative humidity to 0% in steps of 5% units and remaining at each step for 1 h. The graph of sorption-desorption cycle is shown below. […] In a similar DVS experiment using the starting material as purchased, the total vapour intake was about 4%, which is undesirable in formulation and requires additional measures.

Data set [3] can be described thus: Intrinsic dissolution rate measurement (micro-dissolution, UV). The data set is classed as physicochemical. To be noted: for Dissolution rate: 20 ml, 100 rpm. As to the method: 20 ml of high pure water was placed in 25 ml vial in the micro-dissolution thermal block by using a 20 ml volumetric pipette. A large cross stirrer was placed to the vial and the solution was stirred at a speed of 100 rpm. The 5 mm path length tip was placed from the top along with the probe connected with DAD (Diode Array Detector) analyzer. The 100% transmittance and dark spectra was collected by using high pure water. In the next step a tablet of 10 mg of Tenofovir disoproxil succinate (TDSU ULT-1) was pressed on tablet machine and placed along with the stirrer in a 25 ml vial in the micro-dissolution thermal block. The probe was placed along with the 5 mm path length tip and 20 ml of high pure water was added to the sample. The solution was stirred with a speed of 100 rpm and absorbance or the optical density was determined with respect to time by UV spectrometer. The intrinsic dissolution rate was determined by plotting concentration versus time and calculating the slope of the curve.
The same experiments were performed in a similar manner in buffered media of pH values of […]. pH buffers for dissolution pH 1.5: USP SGF without pepsin (0.05M sodium chloride adjusted to pH 1.5 with HCl) pH 3.0: 0.05 sodium di-hydrogen phosphate buffer adjusted to […] with NaOH pH 4.5: 0.05M sodium di-hydrogen phosphate buffer adjusted to pH 4.5 with NaOH pH 6.8: USP SIF without pancreatin (0.05M sodium di-hydrogen phosphate buffer adjusted to pH 6.8 with NaOH) pH 7.4: 0.05M sodium di-hydrogen phosphate adjusted to pH 7.4 with NaOH Results of intrinsic dissolution rate measurements

Test in data set [4]: as above
In kind it is physicochemical. To be noted: 20 ml, 100 rpm.

Data set [5] can be described thus: Stress testing in climatic chamber, physical and chemical stability by XRPD and HPLC. In kind it is physicochemical. To be noted: 40° C. and 75% relative humidity. On the procedure:
A small quantity (of about 10 milligrams) of TDSU ULT-1 was placed in a Binder climatic chamber KBR115 series for stress testing under 40° C. and 75% relative humidity (RH). The material was checked for physical and chemical stability by XRPD and HPLC respectively in intervals of 2 and 4 weeks. In both cases the material was stable, i.e. no structural change or chemical degradation took place over the tested period.

Entries after “also recorded” stand apart in the source; their conditions may differ. Structures can show the parent of a compound that is named as a salt.

For the compound `CC(C)OC(=O)OCOP(=O)(CO[C@H](C)Cn1cnc2c(N)ncnc21)OCOC(=O)OC(C)C` [TDF 1:1, 9-[(R)-2-[[bis[[(isopropoxycarbonyl)oxy]methoxy]phosphinyl]methoxy]propyl]adenine fumarate (1:1), reference compound], in data set [1], the Hygroscopicity was above 4%. In data set [2] (DVS, 25° C.), the “total uptake of water vapours (max water adsorption, hygroscopicity)” value is on record as “about 4%”. The Dissolution rate in data set [3] (Buffer pH 1.5, 10 mg tablet) is listed as 3.29 mgmin−1 cm−2; in data set [3] (Buffer pH 4.5, 10 mg tablet) it was 0.99 mgmin−1 cm−2; in data set [3] (water, 10 mg tablet) it was 1.12 mgmin−1 cm−2; in data set [4] (Buffer pH 3.0, 10 mg tablet) it was 1.36 mgmin−1 cm−2; in data set [4] (Buffer pH 6.8, 10 mg tablet), 0.98 mgmin−1 cm−2.
Take “Tenofovir Disoproxil succinate [TDSU ULT-1]”: the “physical and chemical stability (XRPD and HPLC)” value in data set [5] (2 weeks) and in data set [5] (4 weeks) was “stable” throughout. For the same compound, the “hygroscopicity (conclusion from DVS data)” value in data set [2] (DVS, 25° C., 0% to 95% RH) is on record as “no hygroscopicity; also recorded: not hygroscopic”. The “total uptake of water vapours (max water adsorption, hygroscopicity)” value in data set [2] (DVS, 25° C.) was “about 0.3%”. The “structure by XRPD at the end of the DVS experiment” value in data set [2] (after sorption-desorption cycle) is listed as “no any changes in the structure”. The Dissolution rate is on record as 10.00 mgmin−1 cm−2 in data set [3] (Buffer pH 1.5, 10 mg tablet); 3.55 mgmin−1 cm−2 in data set [3] (Buffer pH 4.5, 10 mg tablet); 1.42 mgmin−1 cm−2 in data set [3] (water, 10 mg tablet); 1.78 mgmin−1 cm−2 in data set [4] (Buffer pH 3.0, 10 mg tablet); 1.88 mgmin−1 cm−2 in data set [4] (Buffer pH 6.8, 10 mg tablet); 1.09 mgmin−1 cm−2 in data set [4] (Buffer pH 7.4, 10 mg tablet). Besides, the “dissolving faster compared to TDF 1:1” value in data set [3] (in water and in all media with pH values ranging from 1.5 to 7.4) was “up to 3 times”.

The values above are taken from patent publication US20110009368A1, “SOLID FORMS OF TENOFOVIR DISOPROXIL” (ULTIMORPHIX TECHNOLOGIES B.V., priority 2007, published 2011).
